The values that follow come from patent US5750540A, “1,4-di-substituted piperidine derivatives” (Banyu Pharmaceutical Co., Ltd., priority 1995, dated 1998).

In one experiment the target is T1, muscarinic M2 receptors (Rattus norvegicus, UniProt P10980).
T1 construct: a membrane specimen from the heart was used as the membrane specimen; from tissue; host or cells: rat heart membranes (SD rat)
T1 sequence (P10980 1-466): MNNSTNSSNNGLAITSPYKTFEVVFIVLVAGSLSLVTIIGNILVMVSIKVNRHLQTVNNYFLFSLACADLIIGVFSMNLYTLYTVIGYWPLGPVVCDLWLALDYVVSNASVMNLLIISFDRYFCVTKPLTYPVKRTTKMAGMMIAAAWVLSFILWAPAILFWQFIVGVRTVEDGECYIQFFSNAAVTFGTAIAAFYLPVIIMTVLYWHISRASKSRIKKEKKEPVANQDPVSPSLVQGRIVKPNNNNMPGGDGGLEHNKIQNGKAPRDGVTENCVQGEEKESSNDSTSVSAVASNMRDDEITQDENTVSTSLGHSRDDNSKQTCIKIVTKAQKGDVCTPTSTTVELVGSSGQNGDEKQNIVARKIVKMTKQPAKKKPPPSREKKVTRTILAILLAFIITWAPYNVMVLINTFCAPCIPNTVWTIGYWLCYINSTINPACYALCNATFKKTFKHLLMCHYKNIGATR
Nature of the experiment: Inhibition of binding to muscarinic M2 receptors ([3H]-N-methylscopolamine, heart membrane). The settings on record: 0.2 nM [3H]-N-methylscopolamine. As for the experimental part: The compounds of formula [I] in accordance with the present invention have a potent and selective inhibitory effect on binding to muscarinic receptors, as well as a potent and selective antagonistic effect on muscarinic receptors both in vitro and in vivo. […] In these tests, their inhibitory and antagonistic effects were expressed in terms of the dissociation constant (Ki) of each test compound which was calculated from its concentration (IC50 ) causing a 50% inhibition of the binding of a labeled ligand to muscarinic receptors. As the labeled ligand, [^3 H]-telenzepine was used for the muscarinic M1 receptors and [^3 H]-N-methylscopolamine for the muscarinic M2 and M3 receptors.
(§1) A male SD strain rat (purchased from Nippon Charles River Co., Ltd.), weighing about 250-350 g, was sacrificed, and the cerebral cortex, heart and lacrimal glands were excised. Using a Polytron (setting 5), each organ was homogenized in 5 volumes of an ice-cold buffer solution (pH 7.4) containing 50 mM tris-HCl, 5 mM magnesium chloride, 1 mM trisodium ethylenediaminetetraacetate and 20% sucrose. The resulting homogenate was centrifuged at 3,000×g at 4° C. for 15 minutes, and the supernatant was filtered through gauze and ultracentrifuged at 100,000×g at 4° C. for 45 minutes. The resulting precipitate was suspended in an ice-cold buffer solution (pH 7.4) containing 50 mM tris-HCl and 5 mM magnesium chloride (hereinafter referred briefly to as "tris buffer") and ultracentrifuged at 100,000×g at 4° C. for 45 minutes. The resulting precipitate was suspended in tris buffer so as to give a concentration of 50 mg/ml and stored at -80° C. till use. The membrane specimens so prepared were thawed prior to use and submitted to tests for the inhibition of binding to muscarinic receptors.
3) Tests for the inhibition of binding to the muscarinic M2 receptors
(§2) The nonspecific binding of [^3 H]-N-methylscopolamine to receptors was determined by the addition of 1 mM N-methylscopolamine.

The target in experiment [1] is T2, muscarinic M3 receptor (Rattus norvegicus, UniProt P08483). The experiment in a line: in vivo. Also on record: from tissue; host or cells: living rat, airways. To be noted: iv, 5 min, read-out: Airway contraction ID50. The procedure:
Tests for antagonism against muscarinic M3 receptor (in vivo)
1) Tests for bronchodilation in rats
Eight- to eleven-weeks-old male rats of the Sprague-Dawley strain, weighing 300-400 g, were anesthetized with urethane (750 mg/kg, i.p.) and a-chloralose (37.5 mg/kg, i.p.). A bronchus was intubated, and the right jugular vein was cannulated for drug administration. […] To evoke an increase in airway resistance, acetylcholine (50 μg/kg, i.v.) was administered to the animals. Mean values for the acetylcholine-induced increase in airway resistance as measured five minutes before (control) and five minutes after test compound administration were calculated and the results were expressed as percentages of the control response. The ID50 value was calculated from the dose-response curve of the test compound using probit analysis and defined as the drug dose that inhibited the acetylcholine-induced increase in airway resistance in the control group by 50 %.

The target in experiment [2] is T3, airway M3 receptors (trachea) (Rattus norvegicus, UniProt P08483).
T3 construct: the trachea was excised; from tissue; host or cells: isolated rat trachea
T3 sequence (P08483 whole entry): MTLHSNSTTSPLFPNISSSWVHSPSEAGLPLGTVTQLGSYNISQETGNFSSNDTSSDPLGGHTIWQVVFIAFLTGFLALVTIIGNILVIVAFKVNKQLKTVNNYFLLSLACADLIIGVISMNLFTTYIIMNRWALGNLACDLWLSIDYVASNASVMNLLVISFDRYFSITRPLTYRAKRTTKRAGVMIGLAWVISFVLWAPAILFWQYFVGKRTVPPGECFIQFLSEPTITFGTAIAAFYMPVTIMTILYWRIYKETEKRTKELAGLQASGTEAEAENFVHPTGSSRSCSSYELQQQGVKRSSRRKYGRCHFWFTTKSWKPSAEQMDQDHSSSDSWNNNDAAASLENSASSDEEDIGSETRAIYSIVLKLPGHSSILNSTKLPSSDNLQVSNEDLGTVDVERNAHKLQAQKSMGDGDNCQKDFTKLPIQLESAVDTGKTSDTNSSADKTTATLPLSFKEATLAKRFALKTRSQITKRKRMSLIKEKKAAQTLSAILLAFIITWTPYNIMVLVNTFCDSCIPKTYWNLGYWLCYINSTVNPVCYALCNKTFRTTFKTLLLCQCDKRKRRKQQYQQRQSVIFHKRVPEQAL
Nature of the experiment: Antagonism against airway M3 receptors in an isolated rat trachea. As for the experimental part: 3) Tests for antagonism against the airway M3 receptors in an isolated rat trachea
These tests were performed according to an ordinary method. A male SD strain rat (weighing 300-500 g) was killed by exsanguination, and the trachea was excised. Annular segments (2 mm wide) were cut out from the trachea and cut open at the anterior cartilage part to make transversely sectioned trachea preparations. A preparation was suspended in a Magnus tube filled with 5 ml of Krebs-Henseleit nutrient solution (gassed with 95% O2 -5% CO2 and kept at 32° C.) with an initial tension of 1.0 g and a resting tension of 0.6 g. The tension of the preparation was recorded isometrically. After being equilibrated for an hour, the preparation was made to contract twice by treatment with 10^-4 M carbachol, and the second contraction induced by carbachol was used as the reference contraction. After the preparation was washed with fresh solution to make a return to the base line, a test compound was administered thereto (or no treatment was made). Ten minutes later, carbachol (10^-8 to 10^-3 M) was cumulatively administered in three-fold increasing doses to obtain a dose-response curve. The dose-response curve was constructed by expressing responses as percentages based on the reference contraction of the preparation. The antagonistic potency (KB value) of the test compound (i.e., a compound in accordance with the present invention) was determined from the degree of shift of the dose-response curve obtained by treatment with the test compound.

The target in experiment [3] is T2, muscarinic M3 receptor. The experiment in a line: Inhibition of binding to muscarinic M3 receptors ([3H]-N-methylscopolamine, lacrimal gland membrane). Further details: a membrane specimen from the lacrimal glands was used as the membrane specimen; from tissue; host or cells: rat lacrimal gland membranes (SD rat). The procedure: In these tests, their inhibitory and antagonistic effects were expressed in terms of the dissociation constant (Ki) of each test compound which was calculated from its concentration (IC50 ) causing a 50% inhibition of the binding of a labeled ligand to muscarinic receptors. As the labeled ligand, [^3 H]-telenzepine was used for the muscarinic M1 receptors and [^3 H]-N-methylscopolamine for the muscarinic M2 and M3 receptors.
as §1
4) Tests for the inhibition of binding to the muscarinic M2 receptors
as §2

pKi: −log10 of the molar value.

T2 sequence (P08483 whole entry): as above

Consider `CC(C)=CCCN1CCC(NC(=O)C(O)(c2ccccc2)C2CCC2)CC1` (centres unmarked) [Example 1, N-[1-(4-methyl-3-pentenyl)-piperidin-4-yl]-2-cyclobutyl-2-hydroxy-2-phenylacetamide], for which the pKi – broadly, the Ki on a negative log10 scale, so that one unit is a factor of ten – is 6.07 on muscarinic M2 receptors and 8.05 at muscarinic M3 receptor [3]. Further, the ED50 at muscarinic M3 receptor [1] stood at 0.023 mg/kg. For the same compound, the Kb (as a rule, the equilibrium dissociation constant of an antagonist, usually derived from a functional assay) in experiment [2] (in vitro, isolated rat trachea, agonist carbachol) was 19 nM. The “M2/M3 *” value in experiment [2] (ratio of KB, right atrium M2 over trachea M3 (* Trachea M3)) is on record as 79. Further, in experiment [2] (ratio of KB, vas deferens M1 over trachea M3 (* Trachea M3)), the “M1/M3 *” value is 6.3. For the same compound, the M1/M3 at muscarinic M3 receptor [3] (ratio of binding Ki, M1 over M3) came to 5.0. Moreover, the M2/M3 at muscarinic M3 receptor [3] (ratio of binding Ki, M2 over M3) is listed as 96.
